Patent US7022695B2, “Thioether-substituted benzamides as inhibitors of Factor Xa” (Millennium Pharmaceuticals, Inc., priority 2003, dated 2006)

What follows are compounds tested against T1, human plasma protein factor Xa (Homo sapiens, UniProt P00742) (assay: Factor Xa Ki determination (cleavage of chromogenic substrate S-2765)). Conditions: fXa 1 nM, S-2765 200 μM, pH 7.4.
T1 construct: The human plasma protein factor Xa was purchased from Haematologic Technologies; purchased Haematologic Technologies (Essex Junction, Vt.); host or cells: human plasma
T1 sequence (P00742 235-488 limits assumed): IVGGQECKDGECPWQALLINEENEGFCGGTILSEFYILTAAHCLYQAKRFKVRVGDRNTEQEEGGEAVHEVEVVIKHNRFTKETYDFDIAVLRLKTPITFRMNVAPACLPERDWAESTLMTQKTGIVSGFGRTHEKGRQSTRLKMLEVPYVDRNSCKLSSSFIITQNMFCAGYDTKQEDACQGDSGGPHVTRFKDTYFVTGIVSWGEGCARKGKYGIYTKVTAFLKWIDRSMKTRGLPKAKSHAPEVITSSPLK
T1 sequence (P00742 41-179 partner limits assumed): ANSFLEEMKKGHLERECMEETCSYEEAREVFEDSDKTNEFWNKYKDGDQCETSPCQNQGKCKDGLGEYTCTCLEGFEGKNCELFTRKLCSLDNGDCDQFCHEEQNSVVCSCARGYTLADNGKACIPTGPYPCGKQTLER
Format: biochemical
Protocol: Protocol for Assay of Factor Xa Inhibitors
The substrate S-2765 (Z-D-Arg-Gly-Arg-pNA.HCl) was obtained from Diapharma (West Chester, Ohio).
The human plasma protein factor Xa was purchased from Haematologic Technologies (Essex Junction, Vt.).
The assay buffer for this series of assays was: Hepes buffered saline (20 mM Hepes, 150 mM NaCl, 5 mM CaCl2, 0.1% PEG-8000, pH 7.4). In a 96-well microtiter plate, inhibitor was serially diluted in a duplicate set of wells to give a range of final concentrations from 5 pM to 3 μM final. Controls without inhibitor (8 wells) were included. The enzyme, fXa (1 nM final) was added to the wells. The substrate S-2765 (200 μM final) was added and the degree of substrate hydrolysis was measured at 405 nm on a Thermomax plate reader for 5 minutes, using Softmax software. Initial velocities (mOD/min) were analyzed by non-linear least squares regression in the Plate Ki software (BioKin Ltd, Pullman, Wash.)(Literature reference: Kusmic P, et al., “High-throughput screening of enzyme inhibitors: Automatic determination of tight-binding inhibition constants” Anal. Biochemistry 2000, 281:62–67). The model used for fitting the inhibitor dose-response curves was the Morrison equation. An apparent Ki (Ki*) was determined. The overall Ki was calculated using the following equation: […]

| Ki | SMILES |
| --- | --- |
| < 10 nM | CN(C)C(=N)c1ccc(C(=O)Nc2ccc(SCC(=O)N(C)C)cc2C(=O)Nc2ccc(Cl)cn2)cc1 [Example 1, N-(5-chloro-2-pyridinyl)-2-(4-N,N-dimethylamidinophenylcarbonyl)amino-5-acetic acid dimethylamide sulfanyl-phenylcarboxamide] |
| < 10 nM | CN(C)C(=N)c1ccc(C(=O)Nc2ccc(SCC(=O)N3CCCCC3)cc2C(=O)Nc2ccc(Cl)cn2)cc1 [Example 2] |
| < 10 nM | CN(C)C(=N)c1ccc(C(=O)Nc2ccc(SCC(=O)N3CCN(C(=O)OC(C)(C)C)CC3)cc2C(=O)Nc2ccc(Cl)cn2)cc1 [Example 3] |
| < 10 nM | CN(C)C(=O)CSc1ccc(NC(=O)c2ccc(C3=NCCN3C)cc2)c(C(=O)Nc2ccc(Cl)cn2)c1 [Example 4] |
| < 10 nM | CN1CCN=C1c1ccc(C(=O)Nc2ccc(SCC(N)=O)cc2C(=O)Nc2ccc(Cl)cn2)cc1 [Example 6] |
| < 10 nM | CNC(=O)CSc1ccc(NC(=O)c2ccc(C3=NCCN3C)cc2)c(C(=O)Nc2ccc(Cl)cn2)c1 [Example 7] |
| < 10 nM | CN(C)CCSc1ccc(NC(=O)c2ccc(C(=N)N(C)C)cc2)c(C(=O)Nc2ccc(Cl)cn2)c1 [Example 9] |
